US8471005B2 (Cephalon, Inc., priority 2008, dated 2013)
pIC50: −log10 of the molar value. Read-outs that look alike come from different tables or passages of the source.

Experiments:
JAK2 = target: T1, JAK2 (Homo sapiens, UniProt O60674); assay: Recombinant Human JAK2 Kinase Assay (TRF); assay type: biochemical; settings: read-out: JAK2 Potency
T1 construct: host or cells: baculovirus expression system
Summary of the method: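 Europium-labelled PY100 antibody reported tyrosine phosphorylation of a Neutravidin-captured biotinyl 15-mer peptide by JAK2 (baculovirus-expressed, 15 ng/ml). Conditions: 20 mM HEPES pH 7.2, 0.2 μM ATP, 1 mM MnCl2, 0.1% BSA, DMSO 2.5% final, 20 min at room temperature.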

ALK = target: T2, ALK (Homo sapiens, UniProt Q9UM73); assay: ALK Kinase Assay (ELISA/TRF, PLC-γ substrate); assay type: biochemical; settings: read-out: ALK Potency
T2 construct: host or cells: baculovirus expression system
T2 sequence (Q9UM73 19-1620): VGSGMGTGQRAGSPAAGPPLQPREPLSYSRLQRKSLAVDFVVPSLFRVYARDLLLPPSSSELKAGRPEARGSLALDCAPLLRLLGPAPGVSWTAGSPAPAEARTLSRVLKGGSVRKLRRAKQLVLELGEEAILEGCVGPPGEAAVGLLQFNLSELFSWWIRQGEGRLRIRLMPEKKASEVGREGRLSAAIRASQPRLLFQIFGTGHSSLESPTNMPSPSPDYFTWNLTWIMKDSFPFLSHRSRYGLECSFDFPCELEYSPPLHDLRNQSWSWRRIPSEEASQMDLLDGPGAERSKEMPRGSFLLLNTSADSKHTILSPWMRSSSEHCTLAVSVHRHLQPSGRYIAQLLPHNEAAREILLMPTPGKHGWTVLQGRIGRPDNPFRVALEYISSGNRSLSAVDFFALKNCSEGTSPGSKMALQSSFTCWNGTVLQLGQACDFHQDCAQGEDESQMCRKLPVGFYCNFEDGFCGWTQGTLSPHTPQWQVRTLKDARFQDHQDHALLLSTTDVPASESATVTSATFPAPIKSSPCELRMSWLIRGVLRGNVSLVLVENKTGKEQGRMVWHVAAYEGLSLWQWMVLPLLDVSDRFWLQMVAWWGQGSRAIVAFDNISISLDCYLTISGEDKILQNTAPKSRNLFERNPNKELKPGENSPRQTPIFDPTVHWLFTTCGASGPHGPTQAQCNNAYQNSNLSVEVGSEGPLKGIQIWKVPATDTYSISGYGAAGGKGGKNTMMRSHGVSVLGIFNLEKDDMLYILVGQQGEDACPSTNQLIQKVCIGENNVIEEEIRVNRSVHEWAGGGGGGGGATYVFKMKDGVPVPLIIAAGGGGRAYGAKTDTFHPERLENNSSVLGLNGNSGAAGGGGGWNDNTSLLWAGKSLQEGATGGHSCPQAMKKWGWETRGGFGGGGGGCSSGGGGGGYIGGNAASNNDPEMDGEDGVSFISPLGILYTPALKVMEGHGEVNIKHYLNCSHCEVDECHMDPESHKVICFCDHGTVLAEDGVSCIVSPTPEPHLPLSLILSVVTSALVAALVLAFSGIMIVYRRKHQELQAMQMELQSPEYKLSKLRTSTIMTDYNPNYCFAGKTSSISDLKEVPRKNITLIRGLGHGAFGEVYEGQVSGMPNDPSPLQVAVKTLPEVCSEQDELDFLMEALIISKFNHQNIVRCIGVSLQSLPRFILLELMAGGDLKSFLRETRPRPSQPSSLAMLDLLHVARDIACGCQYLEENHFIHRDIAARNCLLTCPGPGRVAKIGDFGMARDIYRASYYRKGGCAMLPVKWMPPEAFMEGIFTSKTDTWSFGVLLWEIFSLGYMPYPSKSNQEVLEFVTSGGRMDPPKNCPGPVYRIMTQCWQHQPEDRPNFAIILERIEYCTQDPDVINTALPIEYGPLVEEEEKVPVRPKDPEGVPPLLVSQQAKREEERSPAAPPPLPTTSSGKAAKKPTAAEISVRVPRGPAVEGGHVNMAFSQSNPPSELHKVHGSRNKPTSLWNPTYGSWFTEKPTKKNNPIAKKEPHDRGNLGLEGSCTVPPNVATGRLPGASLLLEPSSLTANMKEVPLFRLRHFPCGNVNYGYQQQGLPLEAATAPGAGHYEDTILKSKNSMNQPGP
Summary of the method: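 PLC-γ substrate coated at 10 μg/mL in TBS; reaction started with 30 ng/ml ALK, run 15 min at 37° C. Phosphoproduct detected by TRF with Eu-N1-labeled PT66 anti-phosphotyrosine antibody. IC50 from sigmoidal variable-slope fit of percent inhibition versus log concentration.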

[1] = JAK2 kinase inhibition, 0.2 μM ATP
[2] = ALK kinase inhibition, 1 μM ATP

T1 sequence (O60674 whole entry): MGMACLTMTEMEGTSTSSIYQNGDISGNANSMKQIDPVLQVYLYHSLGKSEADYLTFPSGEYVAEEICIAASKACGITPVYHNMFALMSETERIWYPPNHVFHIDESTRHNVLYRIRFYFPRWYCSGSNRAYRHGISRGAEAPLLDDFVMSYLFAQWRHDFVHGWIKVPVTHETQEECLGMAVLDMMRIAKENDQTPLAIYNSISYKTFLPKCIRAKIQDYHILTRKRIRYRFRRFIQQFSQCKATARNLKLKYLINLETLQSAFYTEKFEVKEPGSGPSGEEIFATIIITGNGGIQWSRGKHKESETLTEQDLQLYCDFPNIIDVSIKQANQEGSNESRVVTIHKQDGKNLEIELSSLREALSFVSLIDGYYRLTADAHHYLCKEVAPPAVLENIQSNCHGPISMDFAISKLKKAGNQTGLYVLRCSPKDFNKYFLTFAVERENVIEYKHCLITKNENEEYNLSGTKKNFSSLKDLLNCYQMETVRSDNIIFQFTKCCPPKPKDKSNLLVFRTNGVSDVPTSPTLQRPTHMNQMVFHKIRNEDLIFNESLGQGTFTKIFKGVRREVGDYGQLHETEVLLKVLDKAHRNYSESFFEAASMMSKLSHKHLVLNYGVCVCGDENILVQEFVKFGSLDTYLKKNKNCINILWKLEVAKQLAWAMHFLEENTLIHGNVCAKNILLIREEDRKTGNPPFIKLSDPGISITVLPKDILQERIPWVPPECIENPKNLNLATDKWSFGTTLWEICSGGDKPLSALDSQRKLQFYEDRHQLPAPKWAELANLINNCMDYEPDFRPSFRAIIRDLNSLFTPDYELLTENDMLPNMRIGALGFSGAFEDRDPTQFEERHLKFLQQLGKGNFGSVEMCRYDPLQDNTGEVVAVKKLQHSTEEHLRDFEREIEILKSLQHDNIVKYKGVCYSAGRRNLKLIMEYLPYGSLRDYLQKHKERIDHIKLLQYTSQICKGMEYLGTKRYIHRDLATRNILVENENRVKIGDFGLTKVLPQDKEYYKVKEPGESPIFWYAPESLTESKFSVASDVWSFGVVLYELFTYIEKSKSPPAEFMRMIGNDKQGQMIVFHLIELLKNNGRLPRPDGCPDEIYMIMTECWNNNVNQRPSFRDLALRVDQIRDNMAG

| pIC50 (JAK2; [1]) | pIC50 (ALK; [2]) | pIC50 (JAK2; JAK2 Kinase Inhibition) | pIC50 (ALK; ALK Kinase Inhibition) | Compound |
| --- | --- | --- | --- | --- |
| 6.00 to 7.00 | > 7.00 |  |  | N-[2-(2-{4-[4-(2-Hydroxy-ethylamino)-piperidin-1-yl]-2-methoxy-phenylamino}-pyrrolo[2,1-f][1,2,4]triazin-7-yl)-phenyl]-N-methyl-methanesulfonamide [Example 798] |
|  |  | > 7.00 | > 7.00 | COc1ccc(Cl)cc1-c1ccc2cnc(Nc3ccc(N4CCN(C[C@@H](C)O)CC4)cc3)nn12 [Example 207, (R)-1-(4-{4-[7-(5-Chloro-2-methoxy-phenyl)-pyrrolo[2,1-f][1,2,4]triazin-2-ylamino]-phenyl}-piperazin-1-yl)-propan-2-ol] |
| > 7.00 | 6.00 to 7.00 |  |  | COc1ccc(-c2ccc3cnc(Nc4cncc(C(N)=O)c4)nn23)cn1 [Example 667, 5-[7-(6-Methoxy-pyridin-3-yl)-pyrrolo[2,1-f][1,2,4]triazin-2-ylamino]-nicotinamide] |
| > 7.00 | 5.00 to 6.00 |  |  | CS(=O)(=O)c1cccc(-c2ccc3cnc(Nc4ccc(Cl)c(OC[C@H]5CCCN5)c4)nn23)c1 [Example 1021, [4-Chloro-3-((R)-1-pyrrolidin-2-ylmethoxy)-phenyl]-[7-(3-methanesulfonyl-phenyl)-pyrrolo[2,1-f][1,2,4]triazin-2-yl]-amine] |
| 5.00 to 6.00 | 5.00 to 6.00 |  |  | COc1ccc(CN2CCN(C)CC2)cc1Nc1ncc2ccc(-c3ccccc3N(C)S(C)(=O)=O)n2n1 [Example 497, N-(2-{2-[2-Methoxy-5-(4-methyl-piperazin-1-ylmethyl)-phenylamino]-pyrrolo[2,1-f][1,2,4]triazin-7-yl}-phenyl)-N-methyl-methanesulfonamide] |
|  |  | > 7.00 | 5.00 to 6.00 | NC(=O)c1cccc(Nc2ncc3ccc(-c4cccc(Cl)c4)n3n2)c1 [Example 165, 3-[7-(3-Chloro-phenyl)-pyrrolo[2,1-f][1,2,4]triazin-2-ylamino]-benzamide] |
| > 7.00 | > 7.00 |  |  | COc1cc(C2CCN(CC(N)=O)C2)ccc1Nc1ncc2ccc(-c3ccccc3OC)n2n1 (racemic) [Example 836, (±)-2-(3-{3-Methoxy-4-[7-(2-methoxy-phenyl)-pyrrolo[2,1-f][1,2,4]triazin-2-ylamino]-phenyl}-pyrrolidin-1-yl)-acetamide] |
| > 7.00 | > 7.00 |  |  | COc1cc(N2CCC(N3CCOCC3)CC2)ccc1Nc1ncc2ccc(-c3ccc(Cl)cc3OC)n2n1 [Example 486, [7-(4-Chloro-2-methoxy-phenyl)-pyrrolo[2,1-f][1,2,4]triazin-2-yl]-[2-methoxy-4-(4-morpholin-4-yl-piperidin-1-yl)-phenyl]-amine] |
| > 7.00 | > 7.00 |  |  | COc1ccc(-c2ccc3cnc(Nc4ccc(C5CCN(C)CC5)c(C)c4)nn23)cn1 [Example 941, [7-(6-Methoxy-pyridin-3-yl)-pyrrolo[2,1-f][1,2,4]triazin-2-yl]-[3-methyl-4-(1-methyl-piperidin-4-yl)-phenyl]-amine] |
| 5.00 to 6.00 | < 5.00 |  |  | CS(=O)(=O)c1cccc(-c2ccc3cnc(N4CCC(Oc5cccc(N)c5)CC4)nn23)c1 [Example 563, 3-{1-[7-(3-Methanesulfonyl-phenyl)-pyrrolo[2,1-f][1,2,4]triazin-2-yl]-piperdin-4-yloxy}-phenylamine] |
| > 7.00 | 6.00 to 7.00 |  |  | COc1ccc(-c2ccc3cnc(Nc4ccc(OCCN5CCOCC5)cc4)nn23)cn1 [Example 1103, [7-(6-Methoxy-pyridin-3-yl)-pyrrolo[2,1-f][1,2,4]triazin-2-yl]-[4-(2-morpholin-4-yl-ethoxy)-phenyl]-amine] |
|  |  | < 5.00 | 5.00 to 6.00 | COc1cc(N2CCOCC2)ccc1Nc1ncc2cc3ccccc3n2n1 [Example 266, (2-Methoxy-4-morpholin-4-yl-phenyl)-[1,2,4]triazino[1,6-a]indol-2-yl-amine] |
| 5.00 to 6.00 | > 7.00 |  |  | CCN1CC=C(c2ccc(Nc3ncc4ccc(-c5ccccc5N(C)S(C)(=O)=O)n4n3)c(OC)c2)CC1 [Example 744, N-(2-{2-[4-(1-Ethyl-1,2,3,6-tetrahydro-pyridin-4-yl)-2-methoxy-phenylamino]-pyrrolo[2,1-f][1,2,4]triazin-7-yl}-phenyl)-N-methyl-methanesulfonamide] |
| 5.00 to 6.00 | > 7.00 |  |  | COc1cc(C2CCNCC2)ccc1Nc1ncc2ccc(-c3ccccc3N(C)S(C)(=O)=O)n2n1 [Example 819, N-{2-[2-(2-Methoxy-4-piperidin-4-yl-phenylamino)-pyrrolo[2,1-f][1,2,4]triazin-7-yl]-phenyl}-N-methyl-methanesulfonamide] |
|  |  | > 7.00 | 6.00 to 7.00 | CN(c1ccccc1-c1ccc2cnc(Nc3ccc4c(c3)NC(=O)C(C)(C)O4)nn12)S(C)(=O)=O [Example 1371, N-{2-[2-(2,2-Dimethyl-3-oxo-3,4-dihydro-2H-1,4-benzoxazin-6-ylamino)-pyrrolo[2,1-f][1,2,4]triazin-7-yl]-phenyl}-N-methyl-methanesulfonamide] |
| > 7.00 | > 7.00 |  |  | Cc1cc(Nc2ncc3ccc(-c4cccc(S(=O)(=O)NC(C)(C)C)c4)n3n2)ccc1C1CCN(C)CC1 [Example 940, N-tert-Butyl-3-{2-[3-methyl-4-(1-methyl-piperidin-4-yl)-phenylamino]-pyrrolo[2,1-f][1,2,4]triazin-7-yl}-benzenesulfonamide] |
| 5.00 to 6.00 | 5.00 to 6.00 |  |  | COc1cc2c(cc1Nc1ncc3ccc(-c4ccccc4OC)n3n1)CN(C(=O)OC(C)(C)C)C2 [Example 874, 5-Methoxy-6-[7-(2-methoxy-phenyl)-pyrrolo[2,1-f][1,2,4]triazin-2-ylamino]-1,3-dihydro-isoindole-2-carboxylic acid tert-butyl ester] |
| > 7.00 | 5.00 to 6.00 |  |  | CC(C)(C)NS(=O)(=O)c1cccc(-c2ccc3cnc(Nc4ccc5scnc5c4)nn23)c1 [Example 575, 3-[2-(Benzothiazol-5-ylamino)-pyrrolo[2,1-f][1,2,4]triazin-7-yl]-N-tert-butyl-benzenesulfonamide] |
|  |  | > 7.00 | 5.00 to 6.00 | COc1ccc(Nc2ncc3ccc(-c4cccc(Cl)c4)n3n2)cc1OC [Example 152, [7-(3-Chloro-phenyl)-pyrrolo[2,1-f][1,2,4]triazin-2-yl]-(3,4-dimethoxy-phenyl)-amine] |
|  |  | > 7.00 | < 5.00 | c1cc2cnc(Nc3ccc(N4CCOCC4)cc3)nn2c1 [Example 50, (4-Morpholin-4-yl-phenyl)-pyrrolo[2,1-f][1,2,4]triazin-2-yl-amine] |
|  |  | > 7.00 | 5.00 to 6.00 | NC(=O)c1ccccc1-c1ccc2cnc(Nc3ccc(N4CCOCC4)cc3)nn12 [Example 36, 2-[2-(4-Morpholin-4-yl-phenylamino)-pyrrolo[2,1-f][1,2,4]triazin-7-yl]-benzamide] |
|  |  | > 7.00 | 5.00 to 6.00 | c1cc(-c2ccc3cnc(Nc4ccc(N5CCOCC5)cc4)nn23)ccn1 [Example 4, (4-Morpholin-4-yl-phenyl)-(7-pyridin-4-yl-pyrrolo[2,1-f][1,2,4]triazin-2-yl)-amine] |
|  |  | > 7.00 | < 5.00 | CN1CCN(c2ccc(Nc3ncc4c(-c5ccccc5)ccn4n3)cc2)CC1 [Example 41, [4-(4-Methyl-piperazin-1-yl)-phenyl]-(5-phenyl-pyrrolo[2,1-f][1,2,4]triazin-2-yl)-amine] |
| > 7.00 | 6.00 to 7.00 |  |  | CC(C)(C)NS(=O)(=O)c1cccc(-c2ccc3cnc(Nc4ccc5nn(CCN6CCOCC6)cc5c4)nn23)c1 [Example 1345, N-tert-Butyl-3-{2-[2-(2-morpholin-4-yl-ethyl)-2H-indazol-5-ylamino]-pyrrolo[2,1-f][1,2,4]triazin-7-yl}-benzenesulfonamide] |
|  |  | > 7.00 | 6.00 to 7.00 | COc1ccc(Cl)cc1-c1ccc2cnc(Nc3ccc(N4CCC(N5CCOCC5)CC4)cc3)nn12 [Example 335, [7-(5-Chloro-2-methoxy-phenyl)-pyrrolo[2,1-f][1,2,4]triazin-2-yl]-[4-(4-morpholin-4-yl-piperidin-1-yl)-phenyl]-amine] |
| < 5.00 | 6.00 to 7.00 |  |  | COc1c(Nc2ncc3ccc(-c4ccccc4N(C)S(C)(=O)=O)n3n2)cccc1C(=O)N1CCN(CCO)CC1 [Example 1232, N-[2-(2-{3-[4-(2-Hydroxy-ethyl)-piperazine-1-carbonyl]-2-methoxy-phenylamino}-pyrrolo[2,1-f][1,2,4]triazin-7-yl)-phenyl]-N-methyl-methanesulfonamide] |
| 6.00 to 7.00 | 6.00 to 7.00 |  |  | COc1cc(N2CCN(c3ccccn3)CC2)ccc1Nc1ncc2ccc(-c3ccccc3OC)n2n1 [Example 994, [7-(2-Methoxy-phenyl)-pyrrolo[2,1-f][1,2,4]triazin-2-yl]-[2-methoxy-4-(4-pyridin-2-yl-piperazin-1-yl)-phenyl]-amine] |

| Compound | pIC50 (JAK2; [1]) | pIC50 (ALK; [2]) | pIC50 (JAK2; JAK2 Kinase Inhibition) | pIC50 (ALK; ALK Kinase Inhibition) |
| --- | --- | --- | --- | --- |
| {6-[7-(3-tert-Butylsulfamoyl-phenyl)-pyrrolo[2,1-f][1,2,4]triazin-2-yl amino]-2-hydroxy-indan-1-yl}-carbamic acid tert-butyl ester [Example 672] | > 7.00 | 6.00 to 7.00 |  |  |
| CN(c1ccccc1-c1ccc2cnc(Nc3ccc(C4(C#N)CCN(CC(N)=O)CC4)cc3)nn12)S(C)(=O)=O [Example 1549, 2-[4-Cyano-4-(4-{7-[2-(methanesulfonyl-methyl-amino)-phenyl]-pyrrolo[2,1-f][1,2,4]triazin-2-ylamino}-phenyl)-piperidin-1-yl]-acetamide] |  |  | > 7.00 | > 7.00 |
